The text below walks through data of patent EP0449195B1, “Aminobenzene compounds, their production and use” (Takeda Chemical Industries, Ltd., priority 1990, dated 1991).

This experiment relates to N18-RE-105 cells. The experiment in a line: Protective activity to glutamic acid-induced necrocytosis in N18-RE-105 cells (cell lethal ratio from LDH activity). It is filed as cell-based. To be noted: glutamic acid (10 mM), cultivation 24 hours after addition, LDH activity in cells and medium, read-out: IC₅₀ (minimum concentrations for depressing cell lethal ratio to not more than 50%), Effect on glutamic acid cytotoxicity (cell lethal ratio). On the procedure: When a high concentration of glutamic acid (1 to 10 mM) is added to N18-RE-105 cells, neocrocytosis caused by oxidative stress due to inhibition of incorporation of cystine into cells is observed [Neuron 2, 1547 (1989); J. Pharmacol. Exp. Ther. 250, 1132 (1989)].
Activity of various compounds against this glutamic acid-induced necrocytosis was studied. About 10,000 cells were inoculated into a culture dish of 35 mm in diameter containing DMEM medium (1 ml). After cultivation for 24 hours, glutamic acid and a compound to be tested were added. After the medium was changed to DMEM mediums containing the compound in various concentrations and then glutamic acid (10 mM) was added. After addition of glutamic acid, cultivation was further continued for 24 hours. Then, surviving cells were collected and […] activity contained in the cells and medium was determined. A cell lethal ratio (%) was calculated according to the following formula: Cell lethal ratio (%) =(LDH activity in medium)/(LDH activity in cells + LDH activity in medium)x 100 [formula] Regarding the typical compounds of the present invention, minimum concentrations for depressing cell lethal ratio to not more than 50% (IC₅₀) is shown in Table 9.

For “4-(4-octylaminophenyloxy)piperidine [Example 45]”, the IC50 turned out to be 5.5 nM.

For “4-[4-(1-phenyldecanylamino)phenyloxy]piperidine [Example 52]”, the IC50 was 10 nM.
